# Measurements from the supplement of paper PMC10307832.
# Experiments:
# Test in all cases: relative viability (nuclei count vs DMSO), 5 days (fraction); higher = more cells survive
# RAF265 + Decitabine = compound: Cn1c(Nc2ccc(C(F)(F)F)cc2)nc2cc(Oc3ccnc(-c4ncc(C(F)(F)F)[nH]4)c3)ccc21 [RAF265] + Nc1ncn([C@H]2C[C@H](O)[C@@H](CO)O2)c(=O)n1 [Decitabine] (partner 2 µM)
# In short: (§1)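 Relative viability divides the nuclei count in treated wells by that in vehicle wells. Lung cancer cell lines were seeded in 1536-well plates, dosed by pin tool the next day, and fixed and stained after 5 days in one step with final 0.05% Triton X-100, 1% formaldehyde and 1 ug/ml Hoechst. Dosing was a single drug or a fixed anchor-drug dose plus five library-drug doses (not always all listed) in √10 steps, and values are medians of duplicate plates imaged at 4×.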
# Doramapimod + Olaparib = compound: Cc1ccc(-n2nc(C(C)(C)C)cc2NC(=O)Nc2ccc(OCCN3CCOCC3)c3ccccc23)cc1 [Doramapimod] + O=C(c1cc(Cc2n[nH]c(=O)c3ccccc23)ccc1F)N1CCN(C(=O)C2CC2)CC1 [Olaparib] (partner 8 µM)
# In short: as §1
# RAF265 + Lapatinib = compound: Cn1c(Nc2ccc(C(F)(F)F)cc2)nc2cc(Oc3ccnc(-c4ncc(C(F)(F)F)[nH]4)c3)ccc21 [RAF265] + CS(=O)(=O)CCNCc1ccc(-c2ccc3ncnc(Nc4ccc(OCc5cccc(F)c5)c(Cl)c4)c3c2)o1 [Lapatinib] (partner 2 µM)
# In short: as §1
# Doramapimod + Luminespib = compound: Cc1ccc(-n2nc(C(C)(C)C)cc2NC(=O)Nc2ccc(OCCN3CCOCC3)c3ccccc23)cc1 [Doramapimod] + CCNC(=O)c1noc(-c2cc(C(C)C)c(O)cc2O)c1-c1ccc(CN2CCOCC2)cc1 [Luminespib] (partner 0.01 µM)
# In short: as §1
Cell Line,relative viability (RAF265 + Decitabine; first compound 0.01 µM),relative viability (RAF265 + Decitabine; first compound 0.03162 µM),relative viability (RAF265 + Decitabine; first compound 0.1 µM),relative viability (RAF265 + Decitabine; first compound 0.3162 µM),relative viability (RAF265 + Decitabine; first compound 1 µM),relative viability (Doramapimod + Olaparib; first compound 0.02 µM),relative viability (Doramapimod + Olaparib; first compound 0.06325 µM),relative viability (Doramapimod + Olaparib; first compound 0.2 µM),relative viability (Doramapimod + Olaparib; first compound 0.6325 µM),relative viability (Doramapimod + Olaparib; first compound 2 µM),relative viability (RAF265 + Lapatinib; first compound 0.01 µM),relative viability (RAF265 + Lapatinib; first compound 0.03162 µM),relative viability (RAF265 + Lapatinib; first compound 0.1 µM),relative viability (RAF265 + Lapatinib; first compound 0.3162 µM),relative viability (RAF265 + Lapatinib; first compound 1 µM),relative viability (Doramapimod + Luminespib; first compound 0.02 µM),relative viability (Doramapimod + Luminespib; first compound 0.06325 µM),relative viability (Doramapimod + Luminespib; first compound 0.2 µM),relative viability (Doramapimod + Luminespib; first compound 0.6325 µM),relative viability (Doramapimod + Luminespib; first compound 2 µM)
HCC-78,0.852,0.73,0.752,0.731,0.669,0.779,0.715,0.796,0.856,0.729,0.902,0.702,1.24,0.938,0.209,,,,,
HCC-366,0.321,0.319,0.402,0.331,0.213,0.331,0.333,0.318,0.368,0.303,1.03,1.08,1.23,1.02,1.05,,,,,
HCC-827,0.341,0.325,0.294,,0.333,0.766,0.596,0.6,0.679,0.396,0.186,0.197,0.196,,0.147,0.569,0.611,0.751,0.831,0.625
HOP-62,0.223,0.215,0.238,0.226,0.186,0.315,0.369,0.424,0.495,0.467,1.12,,0.934,1.05,0.792,0.957,1.04,1.07,0.931,0.797
IA-LM,,,,,,0.797,0.81,0.724,0.708,0.875,0.652,0.578,0.759,0.653,0.52,,,,,
LC-2-ad,0.778,0.814,0.884,0.773,0.516,0.692,0.801,0.759,0.732,0.766,0.906,1.03,0.813,0.654,0.208,1.02,1.03,1.09,1.15,0.984
LCLC-97TM1,0.248,0.203,0.191,0.159,0.122,0.454,0.477,0.539,0.426,0.254,1.12,1.05,0.443,0.856,0.219,0.789,0.689,0.795,0.705,0.537
LCLC-103H,0.767,0.714,0.682,0.695,0.367,0.741,0.786,0.745,0.758,0.764,,,,,,0.927,0.99,0.884,1.08,0.925
LK-2,0.385,0.339,0.348,0.316,0.179,0.656,0.778,0.656,0.493,0.397,0.879,0.875,1.06,1.03,0.632,0.219,0.202,0.177,0.158,0.169
LOU-NH91,0.828,0.745,0.763,0.685,0.685,0.987,0.929,0.902,1,0.737,0.763,0.719,0.664,0.808,0.572,0.408,0.324,0.28,0.315,0.282
LU99A,0.814,0.842,0.652,0.477,0.302,0.273,0.304,0.27,0.259,0.256,1.02,0.838,0.61,0.496,0.324,0.26,0.239,0.239,0.199,0.24
NCI-H441,0.25,0.227,0.22,0.278,0.214,0.45,0.501,0.45,0.609,0.356,,,,,,0.317,0.243,0.399,,0.298
NCI-H522,0.651,0.585,0.604,0.729,0.617,0.582,0.669,0.696,0.604,0.608,,,,,,0.929,1.07,1,1.12,1.09
NCI-H1299,,,,,,0.97,0.963,0.834,0.864,0.803,0.926,0.918,0.955,0.69,0.742,,,,,
NCI-H1563,,,,,,,,,,,1.01,0.885,0.992,0.815,0.737,0.449,0.548,0.535,0.48,0.481
NCI-H1623,,,,,,,,,,,,,,,,0.555,0.505,0.52,0.571,0.464
NCI-H1648,0.453,0.557,0.518,0.4,0.391,0.99,0.664,0.8,0.981,0.552,,,,,,,,,,
NCI-H1703,,,,,,0.533,0.513,0.384,0.38,0.31,1.07,0.825,1.03,0.613,0.386,,,,,
NCI-H2228,,,,,,0.558,0.599,0.857,0.811,0.592,1.25,0.859,1.24,0.416,0.43,0.151,0.151,0.107,0.14,0.131
NCI-H2342,0.717,0.672,0.727,0.784,0.714,0.496,0.475,0.472,0.473,0.431,,,,,,0.67,0.749,0.701,0.852,0.725
SW 900,0.51,0.429,0.505,0.412,0.407,0.842,0.728,0.895,0.939,0.846,,,,,,0.169,0.185,0.162,0.155,0.165
